Measured values as given in the METLIN SMRT retention time set (Domingo-Almenara et al. 2019).

Test: gradient 5% acetonitrile 3 min, to 50% in 2 min, to 85% in 15 min, held 3 min, 100 µL/min
Details: column: Zorbax Extend-C18 2.1 x 50 mm; eluents: water / acetonitrile, 0.1% formic acid
Method in brief: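 Values are retention times taken from adduct peaks that software picked and an analyst inspected. The pure standards were run as mixtures of ~100 molecules on HPLC linked to a quadrupole time-of-flight mass spectrometer, in positive and negative ionization mode. A Zorbax Extend-C18 column (2.1 × 50 mm, 1.8 μm) was used at 100 μL/min with water and acetonitrile, each including 0.1% formic acid.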

SMILES | RP-LC retention time
CNC(=O)c1nc(C(C)(C)NC(=O)c2ccnn2C)nc2c1OCO2 | 603 s
CCC(C)C(=O)N1CCCN(C2=NS(=O)(=O)C(c3ccc(C(C)C)cc3)=C2C)CC1 (configuration not stated) | 974 s
O=C(CSc1nnnn1-c1ccccc1)c1ccc(Cl)c(Cl)c1 | 1060 s
Cc1noc([C@@H]2CC(F)(F)CN2C(=O)c2cnc[nH]2)n1 | 582 s
CCC(C)NC(=O)N1CCN(Cc2nc3cccnc3n2-c2ccc(OC)cc2)CC1 (configuration not stated) | 621 s
Cc1ccn2c(NC(=O)CCc3ccccc3)c(-c3ccc(F)cc3)nc2c1 | 703 s
CSc1ccc(CNC(=O)Cn2cc(-c3nnc(C)o3)c3ccccc32)cc1 | 812 s
CN1CCN(S(=O)(=O)c2cc(-c3nnc(C4CCCC4)o3)co2)CC1 | 619 s
CCn1cnc2c1CN(S(=O)(=O)c1ccc(C#N)cc1)CC2 | 616 s
O=C1[C@H]2CN(Cc3cccc(Cl)c3F)C[C@H]2C(=O)N1CCc1ccccc1 | 992 s
O=C(Nc1ccc(F)cc1)N1CCC(N2CCN(Cc3ccccc3)C(=O)C2=O)CC1 | 723 s
CC(=O)c1cccc(NC(=O)Cn2c(=O)n(-c3ccc(F)cc3)c(=O)c3c2cc(C)n3C)c1 | 910 s
Clc1ccccc1C1Cn2cnc(-c3nc(-c4cccnc4)no3)c2CO1 (configuration not stated) | 825 s
Cc1cc(N2CCC(NC(=O)Nc3ccc4c(c3)OCCO4)C2=O)ccc1F (configuration not stated) | 774 s
CCCCc1ccc(NC(=O)Cn2nc3cc(C)nc(-c4ccc(OC)cc4)n3c2=O)cc1 | 1040 s
Cc1cccc(S(=O)(=O)Nc2ccc(-c3cn4cccc(C)c4n3)cc2)c1 | 659 s
NC(=O)c1[nH]c2ccc(F)cc2c1N1CCCC1=O | 637 s
CCN1CCC2(CC1)OC(=O)C(C)=C2C(=O)NCCCc1ccccc1 | 654 s
Cc1ccc(C)c(N2CCN(c3ccnc(SCC(=O)NCc4ccc(Cl)cc4)n3)CC2)c1 | 942 s
O=C(NCCN1CCCC1)c1c2c(nc3ccccc13)C(=O)N(C1CCCCC1)C2 | 598 s
CCNc1cc(N2CCC(CCC(=O)NCc3ccc(F)c(Cl)c3)CC2)ncn1 | 682 s
CCN(Cc1ccccc1)C(=O)Cn1nc2c(N3CCSCC3)nccn2c1=O | 829 s
O=C(c1cn2cc(Cl)ccc2n1)N1CCCCCC1 | 718 s

SMILES | RP-LC retention time
Cn1nc(C(=O)Nc2ccccc2)c2c1CCN(C(=O)NCC1CCCO1)C2 (configuration not stated) | 702 s
Cn1c(=O)c(N2CCC(NC(=O)NCc3ccc(F)cc3)CC2)nc2ccccc21 | 814 s
Cn1nc(-c2nc(-c3cccc(F)c3)no2)c2c1CCN(C(=O)NC(C)(C)C)C2 | 964 s
Cc1ccc(Oc2nccnc2SCC(=O)NCCC2=CCCCC2)cc1 | 1090 s
CCc1ccc(C(C)NC(=O)c2cccc(C3CCCN(C(=O)NC(C)C)C3)c2)cc1 (configuration not stated) | 1010 s
Cc1oc(-c2[nH]ncc2C(=O)N(C)C)cc1S(=O)(=O)Nc1ccc(F)c(F)c1 | 890 s
Cc1noc(C)c1C(=O)N(C)C1CCc2nnc(C)n2CC1 (configuration not stated) | 552 s
Cc1ccc(Cn2c(C)c(CNCCc3ccco3)c(C(=O)O)c2C)cc1 | 630 s
COc1ccc(C2Cn3nnc(-c4nc(-c5ccccc5C)no4)c3CO2)cc1 (configuration not stated) | 1200 s
COCc1ncc(C)n1CC1CN(C(=O)C2(c3ccc(OC)cc3)CC2)C1 | 625 s
CCOc1ccc(S(=O)(=O)NC2CC(=O)N(C3CC3)C2)cc1 (configuration not stated) | 652 s
Cc1nc(-c2ccc(C(=O)NC3CC3)cc2)cs1 | 706 s
CC(C)NC(=O)c1ccc(OCC2CCCN(C(=O)c3ccc(Cl)cc3)C2)cc1 (configuration not stated) | 881 s
CCC1CCCCN1C(=O)c1cnc2nc(C)ccc2c1Nc1ccc(C(=O)OC)cc1 (configuration not stated) | 681 s
CS(=O)(=O)N1CCCN(C(=O)c2ccc(F)cc2)CC1 | 670 s
CCc1cc(-c2csc(S(=O)(=O)NCC3CCN(Cc4ccc(Cl)cc4)CC3)c2)on1 | 739 s
CC1=C(c2ccc(C)cc2)S(=O)(=O)N=C1N1CCCN(C(=O)C2CCCC2)CC1 | 872 s
CCc1nc2cc(-c3noc(-c4ccccc4Br)n3)ccc2o1 | 1260 s
CCC(CC)C(=O)NCC(c1ccc(Br)cc1)c1c[nH]c2ccccc12 (configuration not stated) | 945 s
Cc1ccc2ncn(C3CCN(S(=O)(=O)c4ccc(F)c(F)c4)CC3)c(=O)c2c1 | 946 s
Cn1cnc2cc(CNC(=O)c3cccs3)ccc21 | 571 s
O=S(=O)(Nc1cc(F)ccc1F)c1c[nH]c2ncccc12 | 715 s
O=C(Cn1c(=O)oc2ccccc21)N1[C@H]2CC[C@@H]1c1cnc(-c3ccc(F)cc3)nc1C2 | 912 s

SMILES | RP-LC retention time
CCCCN1CCN(C(=O)CN2CCN(Cc3ccc(F)cc3Cl)C2=O)CC1 | 641 s
O=c1ccc(-c2cccc(Cl)c2)nn1CCc1nc(-c2cccnc2)no1 | 805 s
O=C(Cn1cc(-c2nc(-c3ccc(Cl)cc3)no2)ccc1=O)Nc1ccc2c(c1)OCO2 | 986 s
Cc1cccc(-c2ncccc2CNS(=O)(=O)c2cccc(C#N)c2)c1 | 700 s
CCC1CCCCN1Cc1nc(Cn2ccn3nc(-c4ccc(OC)cc4)cc3c2=O)no1 (configuration not stated) | 679 s
O=C(Nc1ccc(Br)cc1)c1ccc(S(=O)(=O)N2CCCC2)cc1 | 914 s
COc1ccc(N2CCN(C(=O)c3sc4ncccc4c3-n3cccc3)CC2)cc1 | 917 s
Cc1ccc(-c2nc3ccccc3[nH]2)cc1NC(=O)C1CCCO1 (configuration not stated) | 615 s
CC1CCc2c(sc3ncnc(SCC(=O)N4CCOCC4)c23)C1 (configuration not stated) | 860 s
CCOc1nc2ccccc2nc1N1CCCC(C(=O)NCC2CCCO2)C1 (configuration not stated) | 934 s
COC(=O)c1c(C(=O)OC)c2c3ccccc3ccn2c1C(=O)OC | 916 s
Fc1ccccc1N1CCN(c2ncc3c(n2)CCN(Cc2ccc4c(c2)OCCO4)C3)CC1 | 779 s
Cc1cc(F)ccc1NC(=O)C1CCN(S(=O)(=O)c2ccc3[nH]c(=O)ccc3c2)CC1 | 729 s
CCN1CCN(C(=O)CC2CCN(C(=O)c3[nH]c(C)c(C(=O)OC(C)C)c3C)CC2)CC1 | 612 s
Cc1ccc(C)c(-c2nnc(NC(=O)c3ccc4c(c3)OCCO4)o2)c1 | 921 s
O=C(Nc1ccc2c(c1)OCO2)C(=O)c1c[nH]c2ccccc12 | 890 s
Cn1cc(-c2cc3n(n2)CCC(=O)N3CC(=O)NCc2cccnc2)c2ccccc21 | 566 s
CCCN(CCC)C(=O)c1cc2c(s1)N(C)CCCC2 | 1150 s
Cc1ccc(Cl)cc1NC(=O)NCC1CCOCC1 | 750 s
Brc1ccc(CN2CCc3nc(N4CCN(c5ccccn5)CC4)ncc3C2)cc1 | 574 s
Cc1cc(C(=O)Nc2nc(-c3cccc(Cl)c3)c(C)s2)no1 | 1140 s
